In BindingDB's records for doi:10.1021/jm00117a005 (Sterling-Winthrop Research Institute, 1988):

Biological target: DNA gyrase (Escherichia coli)
Assay: Gyrase inhibitory activity against Escherichia coli

Compound: CN1CCN(c2c(F)cc3c(=O)c(C(=O)O)cn4c3c2OCC42CC2)CC1
- IC50: 2670 nM
